Test results reported in patent US20070203091A1, “Methods and therapeutic compositions for improving liver, blood flow and skeletal muscle functions in advanced diseases and aging” (priority 2006, published 2007).

Key:
[1] = ATP pharmacokinetics: initial ATP release rate from red blood cells into blood plasma, Phase I study; type: in vivo, human
Protocol: The solution was administered by continuous intravenous infusions using an Ivac or similar infusion device through venous access in a peripheral vein. If venous access was a problem, either a Hickman catheter or its equivalent, or an Infusaport or its equivalent was inserted to provide vascular access.
The 50 μg/kg/min dose could be reduced to 25 μg/kg/min if adverse effects occurred. […] Succeeding infusions in that patient were at the infusion dose tolerated at the end of the previous treatment. If adverse events occurred in patients being infused at 25 μg/kg/min, the infusions were terminated and the patient received no additional infusions.

[2] = cited from earlier work
[3] = Laboratory parameters, chemistry: LDH, bilirubin, SGOT, SGPT, Phase I study; type: in vivo, human
Text: Serum LDH levels are an established strong independent negative prognostic factor, inversely related to survival in a great variety of adverse clinical conditions. In advanced refractory cancers, high LDH and low Karnofsky's performance status are among the strongest established independent negative prognostic factors of survival and quality of life (29).

[4] = low levels of ATP administered directly into the duodenum
[5] = Week 1 (Infusion 1), baseline, N=15
[6] = patients 502-505, week 1 (pre-dose) to week 13 (follow-up)

Structure (SMILES): Nc1ncnc2c1ncn2[C@@H]1O[C@H](COP(=O)(O)OP(=O)(O)OP(=O)(O)O)[C@@H](O)[C@H]1O [ATP, adenosine 5′-triphosphate]
- Initial ATP Release Rates Mean ([1]; Week 1 (infusion 1), 4 hours into infusion): 33.407 nM/min
- Initial ATP Release Rates Mean ([1]; Week 1 (infusion 1), 8 hours (before the end)): 47.224 nM/min
- Initial ATP Release Rates Mean ([1]; Week 1 (infusion 1), 8.25 hours): 10.400 nM/min
- Initial ATP Release Rates Mean ([1]; Week 1 (infusion 1), 9 hours): 25.408 nM/min
- Initial ATP Release Rates Mean ([1]; Week 1 (infusion 1), 10 hours): 13.959 nM/min
- Initial ATP Release Rates Mean ([1]; Week 1 (infusion 1), 11 hours): 14.743 nM/min
- Initial ATP Release Rates Mean ([1]; Week 1 (infusion 1), 12 hours): 12.565 nM/min
- Initial ATP Release Rates Mean ([1]; Week 1 (infusion 1), 14 hours): 12.067 nM/min
- Initial ATP Release Rates Mean ([1]; Week 1 (infusion 1), 16 hours): 15.331 nM/min
- Initial ATP Release Rates Mean ([1]; Week 1 (infusion 1), 20 hours): 20.063 nM/min
- Initial ATP Release Rates Mean ([1]; Week 1 (infusion 1), 24 hours): 17.452 nM/min
- Initial ATP Release Rates Mean ([1]; Week 1 (infusion 1), Time 0 (pre-infusion)): 15.469 nM/min
- Initial ATP Release Rates Mean ([1]; Week 1 (infusion 1), […]): 41.353 nM/min
- Initial ATP Release Rates Mean ([1]; Week 3 (Infusion 3), 4 hours into infusion): 55.414 nM/min
- Initial ATP Release Rates Mean ([1]; Week 3 (Infusion 3), 8 hours before the end): 48.283 nM/min
- Initial ATP Release Rates Mean ([1]; Week 3 (Infusion 3), 8.25 hours): 13.400 nM/min
- Initial ATP Release Rates Mean ([1]; Week 3 (Infusion 3), 9 hours): 34.992 nM/min
- Initial ATP Release Rates Mean ([1]; Week 3 (Infusion 3), 10 hours): 27.342 nM/min
- Initial ATP Release Rates Mean ([1]; Week 3 (Infusion 3), 11 hours): 18.888 nM/min
- Initial ATP Release Rates Mean ([1]; Week 3 (Infusion 3), 12 hours): 14.660 nM/min
- Initial ATP Release Rates Mean ([1]; Week 3 (Infusion 3), 14 hours): 10.390 nM/min
- Initial ATP Release Rates Mean ([1]; Week 3 (Infusion 3), 16 hours): 10.223 nM/min
- Initial ATP Release Rates Mean ([1]; Week 3 (Infusion 3), 20 hours): 11.708 nM/min
- Initial ATP Release Rates Mean ([1]; Week 3 (Infusion 3), 24 hours): 15.880 nM/min
- Initial ATP Release Rates Mean ([1]; Week 3 (Infusion 3), Time 0 (pre-infusion)): 18.228 nM/min
- Initial ATP Release Rates Mean ([1]; Week 3 (Infusion 3), […]): 38.780 nM/min
- Initial ATP Release Rates Mean ([1]; Week 8 (infusion 8), 4 hours into infusion): 28.700 nM/min
- Initial ATP Release Rates Mean ([1]; Week 8 (infusion 8), 8 hours (before the end)): 27.930 nM/min
- Initial ATP Release Rates Mean ([1]; Week 8 (infusion 8), 9 hours): 20.167 nM/min
- Initial ATP Release Rates Mean ([1]; Week 8 (infusion 8), 10 hours): 5.803 nM/min
- Initial ATP Release Rates Mean ([1]; Week 8 (infusion 8), 11 hours): 15.700 nM/min
- Initial ATP Release Rates Mean ([1]; Week 8 (infusion 8), 12 hours): 14.150 nM/min
- Initial ATP Release Rates Mean ([1]; Week 8 (infusion 8), 14 hours): 19.620 nM/min
- Initial ATP Release Rates Mean ([1]; Week 8 (infusion 8), 16 hours): 11.680 nM/min
- Initial ATP Release Rates Mean ([1]; Week 8 (infusion 8), 20 hours): 14.520 nM/min
- Initial ATP Release Rates Mean ([1]; Week 8 (infusion 8), 24 hours): 16.200 nM/min
- Initial ATP Release Rates Mean ([1]; Week 8 (infusion 8), Time 0 (pre-infusion)): 10.967 nM/min
- Initial ATP Release Rates Mean ([1]; Week 8 (infusion 8), […]): 11.267 nM/min
- average increases in Initial ATP Release Rates (from Red Blood Cells) ([1]; patients 502-505, time 0 to 8 hours): 200-400%
- arterial oxygen pressure (PaO2) ([2]; after the administration of ATP into the duodenum): increase
- Pulmonary Vascular Resistance [2, 4]: reductions
- arterial blood pressure or heart rate [2, 4]: No effects
- blood flow [2, 4]: increases
- peripheral vascular resistance [2, 4]: reductions
- LDH, Change from Baseline, Median [3, 5]: 0.0 U/L
- LDH, Observed Values, Mean [3, 5]: 349.0 U/L
- LDH, Observed Values, Median [3, 5]: 265.0 U/L
- Phosphorus, Change from Baseline, Mean [3, 5]: 0.0 mg/dL
- Phosphorus, Change from Baseline, Median [3, 5]: 0.0 mg/dL
- Phosphorus, Observed Values, Mean [3, 5]: 3.1 mg/dL
- Phosphorus, Observed Values, Median [3, 5]: 3.2 mg/dL
- Total Bilirubin, Change from Baseline, Mean [3, 5]: 0.0 mg/dL
- Total Bilirubin, Change from Baseline, Median [3, 5]: 0.0 mg/dL
- Total Bilirubin, Observed Values, Mean [3, 5]: 0.7 mg/dL
- Total Bilirubin, Observed Values, Median [3, 5]: 0.4 mg/dL
- LDH, Change from Baseline, Median ([3]; Week 2 (Infusion 2), N=14): 24.0 U/L
- LDH, Observed Values, Mean ([3]; Week 2 (Infusion 2), N=14): 386.6 U/L
- LDH, Observed Values, Median ([3]; Week 2 (Infusion 2), N=14): 325.5 U/L
- Phosphorus, Change from Baseline, Mean ([3]; Week 2 (Infusion 2), N=14): 0.1 mg/dL
- Phosphorus, Change from Baseline, Median ([3]; Week 2 (Infusion 2), N=14): 0.1 mg/dL
- Phosphorus, Observed Values, Mean ([3]; Week 2 (Infusion 2), N=14): 3.2 mg/dL
- Phosphorus, Observed Values, Median ([3]; Week 2 (Infusion 2), N=14): 3.2 mg/dL
- Total Bilirubin, Change from Baseline, Mean ([3]; Week 2 (Infusion 2), N=14): -0.1 mg/dL
- Total Bilirubin, Change from Baseline, Median ([3]; Week 2 (Infusion 2), N=14): 0.0 mg/dL
- Total Bilirubin, Observed Values, Mean ([3]; Week 2 (Infusion 2), N=14): 0.6 mg/dL
- Total Bilirubin, Observed Values, Median ([3]; Week 2 (Infusion 2), N=14): 0.4 mg/dL
- LDH, Change from Baseline, Median ([3]; Week 4 (Infusion 4), N=11): 3.0 U/L
- LDH, Observed Values, Mean ([3]; Week 4 (Infusion 4), N=11): 277.4 U/L
- LDH, Observed Values, Median ([3]; Week 4 (Infusion 4), N=11): 211.0 U/L
- Phosphorus, Change from Baseline, Mean ([3]; Week 4 (Infusion 4), N=11): -0.1 mg/dL
- Phosphorus, Change from Baseline, Median ([3]; Week 4 (Infusion 4), N=11): 0.0 mg/dL
- Phosphorus, Observed Values, Mean ([3]; Week 4 (Infusion 4), N=11): 3.1 mg/dL
- Phosphorus, Observed Values, Median ([3]; Week 4 (Infusion 4), N=11): 3.0 mg/dL
- Total Bilirubin, Change from Baseline, Mean ([3]; Week 4 (Infusion 4), N=11): 0.2 mg/dL
- Total Bilirubin, Change from Baseline, Median ([3]; Week 4 (Infusion 4), N=11): -0.1 mg/dL
- Total Bilirubin, Observed Values, Mean ([3]; Week 4 (Infusion 4), N=11): 0.8 mg/dL
- Total Bilirubin, Observed Values, Median ([3]; Week 4 (Infusion 4), N=11): 0.2 mg/dL
- LDH, Change from Baseline, Median ([3]; Week 6 (Infusion 6), N=9): −20.0 U/L
- LDH, Observed Values, Mean ([3]; Week 6 (Infusion 6), N=9): 265.6 U/L
- LDH, Observed Values, Median ([3]; Week 6 (Infusion 6), N=9): 173.0 U/L
- Phosphorus, Change from Baseline, Mean ([3]; Week 6 (Infusion 6), N=9): -0.1 mg/dL
- Phosphorus, Change from Baseline, Median ([3]; Week 6 (Infusion 6), N=9): 0.2 mg/dL
- Phosphorus, Observed Values, Mean ([3]; Week 6 (Infusion 6), N=9): 3.1 mg/dL
- Phosphorus, Observed Values, Median ([3]; Week 6 (Infusion 6), N=9): 3.3 mg/dL
- Total Bilirubin, Change from Baseline, Mean ([3]; Week 6 (Infusion 6), N=9): 1.2 mg/dL
- Total Bilirubin, Change from Baseline, Median ([3]; Week 6 (Infusion 6), N=9): -0.1 mg/dL
- Total Bilirubin, Observed Values, Mean ([3]; Week 6 (Infusion 6), N=9): 1.9 mg/dL
- Total Bilirubin, Observed Values, Median ([3]; Week 6 (Infusion 6), N=9): 0.3 mg/dL
- LDH, Change from Baseline, Median ([3]; Week 8 (Infusion 8), N=6): −25.0 U/L
- LDH, Observed Values, Mean ([3]; Week 8 (Infusion 8), N=6): 245.0 U/L
- LDH, Observed Values, Median ([3]; Week 8 (Infusion 8), N=6): 161.0 U/L
- Phosphorus, Change from Baseline, Mean ([3]; Week 8 (Infusion 8), N=7): 0.3 mg/dL
- Phosphorus, Change from Baseline, Median ([3]; Week 8 (Infusion 8), N=7): 0.0 mg/dL
- Phosphorus, Observed Values, Mean ([3]; Week 8 (Infusion 8), N=7): 3.4 mg/dL
- Phosphorus, Observed Values, Median ([3]; Week 8 (Infusion 8), N=7): 3.4 mg/dL
- Total Bilirubin, Change from Baseline, Mean ([3]; Week 8 (Infusion 8), N=7): -0.0 mg/dL
- Total Bilirubin, Change from Baseline, Median ([3]; Week 8 (Infusion 8), N=7): -0.1 mg/dL
- Total Bilirubin, Observed Values, Mean ([3]; Week 8 (Infusion 8), N=7): 0.4 mg/dL
- Total Bilirubin, Observed Values, Median ([3]; Week 8 (Infusion 8), N=7): 0.4 mg/dL
- LDH, Change from Baseline, Median ([3]; Week 10 (Follow-up), N=5): −15.0 U/L
- LDH, Observed Values, Mean ([3]; Week 10 (Follow-up), N=5): 214.6 U/L
- LDH, Observed Values, Median ([3]; Week 10 (Follow-up), N=5): 155.0 U/L
- Phosphorus, Change from Baseline, Mean ([3]; Week 10 (Follow-up), N=6): 0.0 mg/dL
- Phosphorus, Change from Baseline, Median ([3]; Week 10 (Follow-up), N=6): 0.3 mg/dL
- Phosphorus, Observed Values, Mean ([3]; Week 10 (Follow-up), N=6): 3.2 mg/dL
- Phosphorus, Observed Values, Median ([3]; Week 10 (Follow-up), N=6): 3.3 mg/dL
- Total Bilirubin, Change from Baseline, Mean ([3]; Week 10 (Follow-up), N=6): 0.1 mg/dL
- Total Bilirubin, Change from Baseline, Median ([3]; Week 10 (Follow-up), N=6): -0.1 mg/dL
- Total Bilirubin, Observed Values, Mean ([3]; Week 10 (Follow-up), N=6): 0.5 mg/dL
- Total Bilirubin, Observed Values, Median ([3]; Week 10 (Follow-up), N=6): 0.4 mg/dL
- LDH, Change from Baseline, Median ([3]; Week 13 (Follow-up), N=5): −27.0 U/L
- LDH, Observed Values, Mean ([3]; Week 13 (Follow-up), N=5): 168.2 U/L
- LDH, Observed Values, Median ([3]; Week 13 (Follow-up), N=5): 158.0 U/L
- Phosphorus, Change from Baseline, Mean ([3]; Week 13 (Follow-up), N=5): -0.0 mg/dL
- Phosphorus, Change from Baseline, Median ([3]; Week 13 (Follow-up), N=5): 0.2 mg/dL
- Phosphorus, Observed Values, Mean ([3]; Week 13 (Follow-up), N=5): 3.2 mg/dL
- Phosphorus, Observed Values, Median ([3]; Week 13 (Follow-up), N=5): 3.2 mg/dL
- Total Bilirubin, Change from Baseline, Mean ([3]; Week 13 (Follow-up), N=6): 0.1 mg/dL
- Total Bilirubin, Change from Baseline, Median ([3]; Week 13 (Follow-up), N=6): 0.1 mg/dL
- Total Bilirubin, Observed Values, Mean ([3]; Week 13 (Follow-up), N=6): 0.4 mg/dL
- Total Bilirubin, Observed Values, Median ([3]; Week 13 (Follow-up), N=6): 0.4 mg/dL
- SGOT (serum glutamate oxaloacetate transaminase) [3, 6]: Consistent decreases
- SGPT (serum glutamate pyruvate transaminase) [3, 6]: Consistent decreases
- serum LDH (lactate dehydrogenase) [3, 6]: Consistent decreases
- serum levels of bilirubin ([3]; week 13 of treatment): remained stable
- serum levels of lactate dehydrogenase (LDH) ([3]; week 13 of treatment): dropped
